# Source: patent publication US7282507B2, “Indole derivatives as selective androgen receptor modulators (SARMS)” (Janssen Pharmaceutica N.V., priority 2004, dated 2007)
# Where “and” joins values, the source holds several entries; their conditions need not be identical. Equal values may be shown once. Read-outs that look alike come from different tables or passages of the source.
# Legend:
# [1] = target: T1, androgen receptor (rat ventral prostate cytosol) (Rattus norvegicus, UniProt P15207); experiment: Androgen Receptor Binding Using Rat Ventral Prostate Cytosol; conditions: for inhibition at 1 µM: read-out: % Inhibition, Androgen Receptor Binding (Rat Cytosol)
# T1 construct: from tissue; host or cells: ventral prostate cytosol of castrated male Sprague Dawley or Wistar rats
# T1 sequence (P15207 1-902): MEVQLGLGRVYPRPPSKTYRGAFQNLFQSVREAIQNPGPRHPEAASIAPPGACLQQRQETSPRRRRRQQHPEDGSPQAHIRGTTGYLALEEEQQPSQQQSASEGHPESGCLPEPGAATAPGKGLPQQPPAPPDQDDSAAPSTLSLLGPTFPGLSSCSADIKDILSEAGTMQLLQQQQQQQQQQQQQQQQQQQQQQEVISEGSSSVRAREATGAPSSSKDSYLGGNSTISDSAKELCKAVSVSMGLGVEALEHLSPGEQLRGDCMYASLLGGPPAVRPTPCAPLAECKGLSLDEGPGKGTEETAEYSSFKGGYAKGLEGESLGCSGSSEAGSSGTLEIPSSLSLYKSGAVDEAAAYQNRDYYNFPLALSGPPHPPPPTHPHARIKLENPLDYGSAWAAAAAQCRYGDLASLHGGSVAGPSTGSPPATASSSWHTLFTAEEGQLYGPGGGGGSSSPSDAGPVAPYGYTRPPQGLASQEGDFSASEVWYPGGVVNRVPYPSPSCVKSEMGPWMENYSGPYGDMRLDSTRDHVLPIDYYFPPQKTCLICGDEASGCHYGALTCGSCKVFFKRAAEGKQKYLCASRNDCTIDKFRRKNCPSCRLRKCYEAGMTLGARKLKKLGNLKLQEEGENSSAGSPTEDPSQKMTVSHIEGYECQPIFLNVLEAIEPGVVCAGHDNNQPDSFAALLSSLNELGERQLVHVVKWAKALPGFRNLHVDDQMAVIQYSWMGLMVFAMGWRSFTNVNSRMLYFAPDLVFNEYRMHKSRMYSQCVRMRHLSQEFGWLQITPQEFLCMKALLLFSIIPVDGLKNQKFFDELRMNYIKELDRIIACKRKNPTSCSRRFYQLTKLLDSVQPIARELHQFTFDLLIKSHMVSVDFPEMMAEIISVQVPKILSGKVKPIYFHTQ
# Outline: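 Cytosol from castrated rat ventral prostate was incubated overnight at 4°C with 0.5 nM [3H] tracer and compound in TED buffer (10 mM Tris-HCl pH 7.4, molybdate, EDTA, DTT, glycerol).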
# [2] = target: T2, androgen receptor LBD (Panvera) (Rattus norvegicus, UniProt P15207); experiment: Androgen Receptor Filtration Binding Assay (PANVERA)
# T2 construct: 5 pmol androgen receptor LBD (Panvera); purchased Panvera
# T2 sequence (P15207 651-882 limits assumed): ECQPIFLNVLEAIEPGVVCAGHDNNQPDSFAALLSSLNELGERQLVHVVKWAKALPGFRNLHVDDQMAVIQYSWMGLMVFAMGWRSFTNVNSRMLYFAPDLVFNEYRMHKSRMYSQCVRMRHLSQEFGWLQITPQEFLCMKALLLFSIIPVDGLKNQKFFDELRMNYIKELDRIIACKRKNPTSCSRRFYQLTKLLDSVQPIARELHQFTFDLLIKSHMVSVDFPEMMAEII
# Experimental: The assay was run on a 96 well plate with each well filled with a total reaction volume 150 μL, of a solution containing 5 pmol androgen receptor LBD (Panvera) or 30 μL of freshly prepared rat cytosol, 0.5 nM [^3H] […] (TED buffer contains 10 mM Tris.HCl pH 7.4, 1 mM sodium molybdate, 1.5 mM EDTA, 1 mM DTT and 10% (v/v) glycerol.)
# On day one, the solution containing receptor, tracer and TED buffer was distributed into a 96 well plate. Diluted test compound or control vehicle was then added to individual wells and the plate incubated at 4° C. overnight.
# On day two, to each well was then added 20 μL human γ-globulin (ICN 823102), prepared at 25 mg/ml in TE pH 8.0, and 55 μL 40% polyethylene glycol 8000 (J T Baker U222-08), prepared in TE pH 8.0. The plate was incubated at 4° C. for 60 minutes. During incubation, the harvester was rinsed with 10% PEG 8000, prepared in TE pH 8.0, and a GF/C Unifilter-96 was pre-wet with 10% PEG. The binding reaction was filtered, the retentate was washed three times with 10% PEG and dried under vacuum for a couple of minutes, then dried at 50° C. for 5 min and the plate was bottom sealed. Next, 25 μL of Microscint-20 (Packard) was added to the filter wells and the plate was top sealed. The plate wells were then counted on a TopCount (Packard).
# Counts per well were measured and IC50s determined by linear regression.
# [3] = [3H] R1881 tracer 0.5 nM, read-out: IC50 (nM), Androgen Receptor Binding (Panvera)
# [4] = read-out: IC50 (nM), Androgen Receptor Binding (Rat Cytosol)
# [5] = read-out: IC50 (nM), Androgen Receptor Binding (Panvera)
# [6] = IC50 (nM), Androgen Receptor Binding (Panvera)
SMILES,inhibition at 1 µM ([1]; Concentration 1000 nM) [%],"IC50 [2, 3]",further results
COC(=O)c1ccc2c(c1)cc(C(C)(O)CSc1ccccc1)n2S(C)(=O)=O (stereo not shown) [Compound 81],5.2,15000 nM,–
CC(O)(CSC1CCCCC1)c1cc2cc(C#N)c(C(F)(F)F)cc2[nH]1 (stereo not shown) [Compound 92],14.7,37000 nM,–
CC(O)(CSc1ccc(Cl)cc1)c1cc2cc(Cl)ccc2[nH]1 (stereo not shown) [Compound 102],73.5,665 nM,"IC50 [1, 4]: 140 nM"
CC(O)(CSc1ccc(Cl)cc1)c1cc2ccccc2n1S(C)(=O)=O (stereo not shown) [Compound 88],-17.4,5150 nM,–
CC(O)(COC(=O)c1cccc(Cl)c1)c1cc2cc([N+](=O)[O-])c(C(F)(F)F)cc2[nH]1 (stereo not shown) [Compound 58],79.5,–,"IC50 [2, 5]: 455 nM"
CC(O)(C[S+]([O-])c1ccc(F)cc1)c1cc2cc(Cl)c(C(F)(F)F)cc2[nH]1 (stereo not shown) [Compound 114],–,4900 nM,"% Inhibition, Androgen Receptor Binding (Rat Cytosol) ([1]; Concentration 1000 nM, 1 µM): 61%"
CC(O)(CSc1ccc(F)cc1)c1cc2cc(C#N)c(C(F)(F)F)cc2[nH]1 (stereo not shown) [Compound 109],49,2600 nM,–
CC(O)(COC(=O)c1ccc(Cl)cc1)c1cc2cc(Cl)c(C(F)(F)F)cc2[nH]1 (racemic) [Compound 62],–,325 nM,"% Inhibition, Androgen Receptor Binding (Rat Cytosol) ([1]; Concentration 1000 nM): 69%"
CC(O)(COC(=O)c1ccccc1Cl)c1cc2cc([N+](=O)[O-])c(C(F)(F)F)cc2[nH]1 (stereo not shown) [Compound 54],–,–,"inhibition at 1 µM [1]: 5.5%; IC50 [2, 6]: 220 nM; IC50 [2, 5]: 465 nM"
CC(O)(CSc1ccc(Cl)c(Cl)c1)c1cc2cc([N+](=O)[O-])c(C(F)(F)F)cc2[nH]1 (stereo not shown) [Compound 87],–,350 nM and 1650 nM,"% Inhibition, Androgen Receptor Binding (Rat Cytosol) ([1]; Concentration 1000 nM, 1 µM): 85% and 61.5%; IC50 [1, 4]: 120 nM"
CS(=O)(=O)n1c(C2(O)CCNCC2)cc2cc(Cl)c(C(F)(F)F)cc21 [Compound 23],–,54000 nM,"% Inhibition, Androgen Receptor Binding (Rat Cytosol) ([1]; Concentration 1000 nM): −1.5%; IC50 [1, 4]: 6000 nM"
CC(O)(COC(=O)c1ccccc1)c1cc2cc([N+](=O)[O-])c(C(F)(F)F)cc2[nH]1 (stereo not shown) [Compound 64],61.5,815 nM,–
CC(O)(COC(=O)c1ccccn1)c1cc2cc([N+](=O)[O-])c(C(F)(F)F)cc2[nH]1 (stereo not shown) [Compound 68],36,19000 nM,–
CC(O)(CSc1ccccc1)c1cc2nc(C(F)(F)F)ccc2[nH]1 (racemic) [Compound 2],2.5,53000 nM,–
CC(O)(CSc1ccc(Cl)c(Cl)c1)c1cc2cc(Cl)c(C(F)(F)F)cc2n1S(C)(=O)=O (stereo not shown) [Compound 86],72.5,1250 nM,"IC50 [1, 4]: 240 nM"
CC(O)(CSc1ccc(Cl)cc1)c1cc2cc(Cl)ccc2n1S(C)(=O)=O (stereo not shown) [Compound 101],-24.9,3850 nM,–
CC(O)(COC(=O)c1ccc(Cl)cc1)c1cc2cc([N+](=O)[O-])c(C(F)(F)F)cc2[nH]1 (stereo not shown) [Compound 55],5.5,715 nM and 635 nM,"IC50 [1, 4]: 180 nM"
O=C(OCc1ccccc1)N1CCC(O)(c2cc3cc(Cl)c(C(F)(F)F)cc3[nH]2)CC1 [Compound 20],-28.5,23500 nM,–
Cc1ccc(C(=O)OCC(C)(O)c2cc3cc([N+](=O)[O-])c(C(F)(F)F)cc3[nH]2)cc1 (stereo not shown) [Compound 69],31,1200 nM,–
COC(=O)c1ccc2[nH]c(C(C)(O)CSc3ccc(Cl)cc3)cc2c1 (stereo not shown) [Compound 97],25,7400 nM,–

SMILES,inhibition at 1 µM ([1]; Concentration 1000 nM) [%],"IC50 [2, 3]",further results
COC(=O)c1ccc2c(c1)cc(C(C)(O)CSC1CCCCC1)n2S(C)(=O)=O (stereo not shown) [Compound 93],35,23000 nM,–
CC(O)(CSc1ccc(Cl)cc1)c1cc2cc(C#N)c(C(F)(F)F)cc2[nH]1 (stereo not shown) [Compound 96],–,–,"% Inhibition, Androgen Receptor Binding (Rat Cytosol) ([1]; 1 µM): 59%; inhibition at 1 µM [1]: 74%; IC50 [2, 6]: 820 nM; IC50 [2, 5]: 1710 nM"
CC(O)(CSc1ccc(F)cc1)c1cc2ccccc2n1S(C)(=O)=O (stereo not shown) [Compound 107],1.5,9400 nM,–
CC(O)(CSc1ccccc1Cl)c1cc2cc(Cl)c(C(F)(F)F)cc2[nH]1 (stereo not shown) [Compound 84],86,180 nM,"IC50 [1, 4]: 240 nM"
CC(O)(COC(=O)c1ccccc1C(F)(F)F)c1cc2cc(NC(=O)C(F)(F)F)c(C(F)(F)F)cc2[nH]1 (stereo not shown) [Compound 60],44.5,6750 nM,"IC50 [1, 4]: > 10000 nM"
CC(O)(CSc1ccc(Cl)c(Cl)c1)c1cc2cc([N+](=O)[O-])c(C(F)(F)F)cc2n1S(C)(=O)=O (stereo not shown) [Compound 91],36,1280 nM,–
O=C(c1ccc(Cl)cc1)N1CCC(O)(c2cc3cc(Cl)c(C(F)(F)F)cc3[nH]2)CC1 [Compound 25],–,8800 nM,"% Inhibition, Androgen Receptor Binding (Rat Cytosol) ([1]; Concentration 1000 nM): −83.5%"
CC(O)(COC(=O)c1ccccc1)c1cc2cc(Cl)c(C(F)(F)F)cc2[nH]1 (stereo not shown) [Compound 61],73,440 nM,–
CS(=O)(=O)n1c(C2(O)CCN(Cc3ccccc3)CC2)cc2cc(Cl)c(C(F)(F)F)cc21 [Compound 21],–,> 10200 nM,"% Inhibition, Androgen Receptor Binding (Rat Cytosol) ([1]; Concentration 1000 nM): −41.5%"
CC(O)(CSc1ccc(F)cc1)c1cc2ccccc2[nH]1 (stereo not shown) [Compound 108],17.5,7000 nM,–
CC(O)(COC(=O)c1ccc(Cl)c(Cl)c1)c1cc2cc(C#N)c(C(F)(F)F)cc2[nH]1 (stereo not shown) [Compound 78],16.6,3560 nM,–
COC(=O)c1ccc2[nH]c(C(C)(O)CSC3CCCCC3)cc2c1 (stereo not shown) [Compound 94],21.8,15000 nM,–
CS(=O)(=O)n1c(C2(O)CCN(C(=O)OCc3ccccc3)CC2)cc2cc(Cl)c(C(F)(F)F)cc21 [Compound 19],–,> 100000 nM,"% Inhibition, Androgen Receptor Binding (Rat Cytosol) ([1]; Concentration 1000 nM): −55%"
CC(O)(CSc1ccc(Cl)cc1)c1cc2cc(Cl)c(C(F)(F)F)cc2[nH]1 (stereo not shown) [Compound 82],69.8,185 nM and 200 nM,"% Inhibition, Androgen Receptor Binding (Rat Cytosol) ([1]; Concentration 1000 nM, 1 µM): 83%; IC50 [1, 4]: 640 nM"
CC(O)(COC(=O)c1ccc(Cl)cc1)c1cc2cc(C#N)c(C(F)(F)F)cc2[nH]1 (stereo not shown) [Compound 76],-30.5,1240 nM,–
CC(O)(CSc1ccc(F)cc1)c1cc2cc(Cl)ccc2n1S(C)(=O)=O (stereo not shown) [Compound 99],8.5,5750 nM,–
CC(O)(COC(=O)c1ccccc1C(F)(F)F)c1cc2cc(N)c(C(F)(F)F)cc2[nH]1 (stereo not shown) [Compound 59],–,–,"IC50 [1]: 220 nM; inhibition at 1 µM [1]: 67.5%; IC50 [2, 5]: 4100 nM"
CC(O)(CSc1ccccc1)c1cc2ccccc2n1S(C)(=O)=O (stereo not shown) [Compound 90],-2.5,> 9000 nM,–
CC(O)(C[S+]([O-])c1ccccc1)c1cc2cc(Cl)c(C(F)(F)F)cc2[nH]1 (stereo not shown) [Compound 112],39.5,4100 nM,–
CC(O)(COC(=O)c1c(Cl)cccc1Cl)c1cc2cc([N+](=O)[O-])c(C(F)(F)F)cc2[nH]1 (stereo not shown) [Compound 52],94.5,150 nM,"IC50 [1, 4]: 79 nM"
